The target in experiment [1] is Alpha adrenergic receptor 1A and 1B (Rattus norvegicus) (UniProt P15823+P43140). Briefly: Selectivity ratio for rat adrenergic alpha-1A receptor over rat adrenergic Alpha-1B receptor. The experiment is classed as functional.
The next experiment is filed under the species Rattus norvegicus. Briefly: Selectivity ratio for rat adrenergic Alpha-1D receptor over rat adrenergic Alpha-1B receptor. The class given is functional.
The target in experiment [2] is T1, Alpha-1B adrenergic receptor (Rattus norvegicus) (UniProt P15823).
T1 sequence (whole entry): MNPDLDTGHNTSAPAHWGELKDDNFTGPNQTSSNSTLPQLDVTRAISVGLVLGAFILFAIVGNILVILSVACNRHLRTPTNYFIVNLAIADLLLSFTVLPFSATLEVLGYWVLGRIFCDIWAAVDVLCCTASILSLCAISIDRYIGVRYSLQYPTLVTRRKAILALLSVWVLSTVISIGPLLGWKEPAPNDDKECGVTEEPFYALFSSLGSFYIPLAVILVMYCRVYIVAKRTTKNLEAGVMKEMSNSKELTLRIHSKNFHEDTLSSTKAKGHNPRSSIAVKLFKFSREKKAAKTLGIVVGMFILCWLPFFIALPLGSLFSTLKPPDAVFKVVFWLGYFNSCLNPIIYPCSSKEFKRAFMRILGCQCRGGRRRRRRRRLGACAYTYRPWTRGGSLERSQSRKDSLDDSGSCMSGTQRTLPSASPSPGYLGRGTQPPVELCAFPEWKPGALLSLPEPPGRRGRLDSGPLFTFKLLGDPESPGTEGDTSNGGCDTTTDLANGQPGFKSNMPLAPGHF
The experiment is described as follows: Antagonist activity against adrenergic Alpha-1B receptor in rat spleen assessed as inhibition of phenylephrine-induced response. The class given is functional, tissue-based.

Experiment [3] concerns the target Adrenergic receptors; alpha-1 A & B (Homo sapiens) (UniProt P35348+P35368). Briefly: Selectivity ratio of pKi for human adrenergic alpha-1a receptor to pKi for human adrenergic alpha-1b receptor. The experiment is classed as protein assay.
Experiment [4] concerns the target T2, Alpha-1D adrenergic receptor (Homo sapiens, UniProt P25100).
T2 sequence (P25100 whole entry): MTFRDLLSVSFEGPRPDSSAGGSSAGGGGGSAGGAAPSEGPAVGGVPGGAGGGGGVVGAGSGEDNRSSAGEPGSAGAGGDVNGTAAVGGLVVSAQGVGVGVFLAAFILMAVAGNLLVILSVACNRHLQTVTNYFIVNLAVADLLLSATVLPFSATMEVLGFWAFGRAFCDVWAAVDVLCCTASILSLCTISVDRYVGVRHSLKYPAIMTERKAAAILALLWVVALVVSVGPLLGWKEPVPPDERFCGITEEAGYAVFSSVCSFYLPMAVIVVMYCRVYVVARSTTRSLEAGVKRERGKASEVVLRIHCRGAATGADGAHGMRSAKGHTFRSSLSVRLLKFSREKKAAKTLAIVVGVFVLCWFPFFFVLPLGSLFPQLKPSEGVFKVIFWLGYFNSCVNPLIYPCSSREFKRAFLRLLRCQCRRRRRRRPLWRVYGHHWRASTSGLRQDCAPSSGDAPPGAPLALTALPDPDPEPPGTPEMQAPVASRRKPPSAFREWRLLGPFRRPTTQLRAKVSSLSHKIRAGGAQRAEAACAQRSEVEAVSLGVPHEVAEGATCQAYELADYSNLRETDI
Briefly: Displacement of [3H]prazosin from human adrenergic alpha-1d receptor expressed in CHO cells. The experiment is classed as cell-based. In general terms: In a radioligand displacement assay an active substance lowers the binding of a labelled ligand.

The species named for another experiment is Homo sapiens. The experiment is described as follows: Selectivity ratio of pKi for human adrenergic alpha-1d receptor to pKi for human adrenergic alpha-1b receptor.
In experiment [5] the target is T3, Alpha-1D adrenergic receptor (Rattus norvegicus) (UniProt P23944).
T3 sequence (whole entry): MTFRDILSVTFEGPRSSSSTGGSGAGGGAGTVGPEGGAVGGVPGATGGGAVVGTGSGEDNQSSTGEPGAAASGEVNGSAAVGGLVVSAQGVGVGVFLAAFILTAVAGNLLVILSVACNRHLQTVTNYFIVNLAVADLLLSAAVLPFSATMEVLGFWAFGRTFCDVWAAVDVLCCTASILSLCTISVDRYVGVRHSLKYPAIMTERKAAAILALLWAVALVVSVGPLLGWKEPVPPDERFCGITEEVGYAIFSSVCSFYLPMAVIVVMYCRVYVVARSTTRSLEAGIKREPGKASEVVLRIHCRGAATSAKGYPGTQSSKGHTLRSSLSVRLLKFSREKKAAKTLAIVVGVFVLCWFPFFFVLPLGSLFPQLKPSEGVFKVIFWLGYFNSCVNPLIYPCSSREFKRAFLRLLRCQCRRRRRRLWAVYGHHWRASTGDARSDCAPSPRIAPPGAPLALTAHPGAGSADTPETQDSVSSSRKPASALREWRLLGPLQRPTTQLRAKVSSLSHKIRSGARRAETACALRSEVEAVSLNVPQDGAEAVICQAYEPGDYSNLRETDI
Briefly: (§1) Antagonist activity against adrenergic Alpha-1D receptor in rat thoracic aorta assessed as noradrenaline-induced response. The experiment is classed as functional, tissue-based.

The target of experiment [6] is T4, Alpha-1A adrenergic receptor (Rattus norvegicus) (UniProt P43140).
T4 sequence (whole entry): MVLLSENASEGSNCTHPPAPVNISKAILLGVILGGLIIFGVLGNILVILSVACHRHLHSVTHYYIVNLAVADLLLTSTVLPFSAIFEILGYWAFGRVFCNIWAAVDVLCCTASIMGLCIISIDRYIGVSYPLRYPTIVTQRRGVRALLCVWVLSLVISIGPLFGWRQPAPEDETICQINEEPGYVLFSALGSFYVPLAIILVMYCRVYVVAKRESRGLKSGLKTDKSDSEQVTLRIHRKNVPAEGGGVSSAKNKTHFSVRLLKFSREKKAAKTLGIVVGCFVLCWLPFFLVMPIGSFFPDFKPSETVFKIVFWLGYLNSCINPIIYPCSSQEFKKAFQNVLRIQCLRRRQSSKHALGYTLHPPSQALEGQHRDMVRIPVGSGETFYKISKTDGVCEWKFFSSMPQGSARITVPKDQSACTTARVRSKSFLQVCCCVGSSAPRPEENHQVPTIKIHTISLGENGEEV
Briefly: (§2) Antagonist activity against adrenergic alpha-1A receptor in rat prostatic vas deferens assessed as inhibition of noradrenaline-induced contraction. The class given is functional, tissue-based.

Experiment [7] has as its target T5, Alpha-1B adrenergic receptor (Homo sapiens, UniProt P35368).
T5 sequence (P35368 whole entry): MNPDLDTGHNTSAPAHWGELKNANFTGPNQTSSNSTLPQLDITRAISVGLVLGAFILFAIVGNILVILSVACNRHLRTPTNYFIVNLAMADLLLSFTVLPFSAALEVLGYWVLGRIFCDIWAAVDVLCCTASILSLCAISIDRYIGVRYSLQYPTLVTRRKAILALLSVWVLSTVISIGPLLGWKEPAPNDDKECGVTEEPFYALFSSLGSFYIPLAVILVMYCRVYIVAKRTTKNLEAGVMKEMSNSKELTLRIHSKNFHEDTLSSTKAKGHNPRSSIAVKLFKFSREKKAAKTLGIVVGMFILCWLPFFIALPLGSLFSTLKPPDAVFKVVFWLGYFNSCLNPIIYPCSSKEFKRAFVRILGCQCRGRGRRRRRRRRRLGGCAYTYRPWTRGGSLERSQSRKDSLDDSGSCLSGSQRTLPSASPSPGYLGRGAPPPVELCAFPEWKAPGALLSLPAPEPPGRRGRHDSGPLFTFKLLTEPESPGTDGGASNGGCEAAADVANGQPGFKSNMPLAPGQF
The experiment is described as follows: Displacement of [3H]prazosin from human adrenergic alpha-1b receptor expressed in CHO cells. The class given is cell-based.

The target of experiment [8] is T6, Alpha-1A adrenergic receptor (Homo sapiens, UniProt P35348).
T6 sequence (P35348 whole entry): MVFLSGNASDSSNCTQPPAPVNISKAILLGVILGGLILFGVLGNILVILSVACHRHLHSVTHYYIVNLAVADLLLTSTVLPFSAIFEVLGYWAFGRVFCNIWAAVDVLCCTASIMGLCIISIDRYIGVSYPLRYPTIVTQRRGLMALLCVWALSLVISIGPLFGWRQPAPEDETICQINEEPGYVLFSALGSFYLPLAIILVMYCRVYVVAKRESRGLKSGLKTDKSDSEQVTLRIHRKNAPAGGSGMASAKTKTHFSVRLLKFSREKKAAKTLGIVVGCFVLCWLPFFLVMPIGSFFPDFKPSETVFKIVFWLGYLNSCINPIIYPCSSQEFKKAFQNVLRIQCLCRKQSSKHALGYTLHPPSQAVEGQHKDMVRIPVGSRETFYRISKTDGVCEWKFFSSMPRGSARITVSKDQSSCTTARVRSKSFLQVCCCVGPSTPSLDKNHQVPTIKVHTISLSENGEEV
Briefly: Displacement of [3H]prazosin from human adrenergic alpha-1a receptor expressed in CHO cells. The class given is cell-based.

Experiment [9] has as its target Alpha adrenergic receptor 1A and 1D (Rattus norvegicus) (UniProt P23944+P43140). Briefly: Selectivity ratio for rat adrenergic alpha-1A receptor over rat adrenergic Alpha-1D receptor. The class given is functional.
The target in experiment [10] is Alpha adrenergic receptor (1a and 1d) (Homo sapiens) (UniProt P35348+P25100). The experiment is described as follows: Selectivity ratio of pKi for human adrenergic alpha-1a receptor to pKi for human adrenergic alpha1d receptor. The class given is protein assay.
The target in experiment [11] is T7, Alpha-1D adrenergic receptor (Rattus norvegicus, UniProt P23944).
T7 sequence (P23944 whole entry): T3 sequence (whole entry)
Described as §1. As to conditions: read-out: pA2 (converted). The class given is functional, tissue-based.

Experiment [12] deals with T8, Alpha-1A adrenergic receptor (Rattus norvegicus, UniProt P43140).
T8 sequence (P43140 whole entry): T4 sequence (whole entry)
Described as §2. The following applies: read-out: pA2 (converted). The class given is functional, tissue-based.

The term pKb denotes the Kb on a negative log10 scale, so that one unit is a factor of ten. As usually defined, the Ki is the equilibrium dissociation constant of an inhibitor or competing ligand from its target. The low end stands for tighter binding, the high end for weaker binding.

On to `COc1cc2nc(N3CCN(C(=O)c4ccccn4)[C@H]4CCCC[C@H]43)nc(N)c2cc1OC`, for which the Selectivity ratio in [1] stood at 40; in the experiment listed under Rattus norvegicus, 33; in [3], 8; in the experiment listed under Homo sapiens, 5; in experiment [9] it was 1; in experiment [10], 2. Moreover, the pKb in experiment [2] is 8.64; in experiment [5], 7.12; in [6] it was 7.04. In addition, the Ki in [4] was 26.9 nM; in experiment [7], 5.89 nM; in [8], 49 nM.

As for `COc1cc2nc(N3CCN(C(=O)c4ccc[nH]4)[C@H]4CCCC[C@H]43)nc(N)c2cc1OC`, the Selectivity ratio stood at 10 in experiment [1]; 5 in the experiment listed under Rattus norvegicus; 3 in [3]; 0.5 in the experiment filed under Homo sapiens; 2 in [9]; 7 in [10]. For the same compound, the pKb in experiment [2] stood at 8.05; in experiment [5], 7.33; in [6], 7.06. Besides, the figures for the Ki in experiment [4], in [7] and in [8] were 1.51 nM, 3.16 nM and 10.5 nM, respectively.

In the case of `COc1cc2nc(N3CCN(C(=O)c4cccs4)[C@H]4CCCC[C@H]43)nc(N)c2cc1OC`, the Selectivity ratio worked out at 22 in [1]; 21 in the experiment listed under Rattus norvegicus; 18 in experiment [3]; 10 in the experiment filed under Homo sapiens; 1 in experiment [9]; 2 in experiment [10]. For the same compound, the pKb in [2] was 8.78; in [6], 7.44. Also, the figures for the Ki in experiment [4], in experiment [7] and in experiment [8] were 2.34 nM, 0.24 nM and 4.27 nM, respectively. Besides, the Kb in [11] was 35.5 nM.

Take `COc1ccc(C(=O)N2CCN(c3nc(N)c4cc(OC)c(OC)cc4n3)[C@@H]3CCCC[C@@H]32)o1`: the Selectivity ratio came out at 45 in experiment [1]; 28 in the experiment listed under Rattus norvegicus; 32 in experiment [3]; 4 in the experiment listed under Homo sapiens; 2 in experiment [9]; 8 in experiment [10]. In addition, in experiment [2], the pKb turned out to be 8.5. In addition, the Ki was 3.63 nM in [4], 0.871 nM in [7] and 27.5 nM in [8]. In addition, the results for the Kb in experiment [11] and in experiment [12] were 89.1 nM and 141 nM, respectively.

Take `COc1cc2nc(N3CCN(C(=O)c4ccc(C(C)=O)o4)[C@H]4CCCC[C@H]43)nc(N)c2cc1OC`: the Selectivity ratio in experiment [1] came to 12; in the experiment filed under Rattus norvegicus, 29; in experiment [3], 19; in the experiment listed under Homo sapiens, 5; in experiment [9], 0.4; in experiment [10], 4. The negative logarithm of the Kb (pKb) stood at 8.13 in experiment [2] and 7.05 in experiment [6]. The Ki in experiment [4] is 7.41 nM; in experiment [7] it was 1.38 nM; in experiment [8], 25.7 nM. Moreover, the Kb in experiment [11] is 214 nM.

On to `COc1cc2nc(N3CCN(C(=O)c4ccc(Br)o4)[C@H]4CCCC[C@H]43)nc(N)c2cc1OC`, for which the Selectivity ratio in [1] came out at 9; in the experiment filed under Rattus norvegicus it was 19; in experiment [3], 11; in the experiment filed under Homo sapiens it was 5; in experiment [9] it was 0.5; in experiment [10], 2. In addition, the pKb in experiment [2] is 8.5; in experiment [6] it was 7.53. The Ki in experiment [4] is 1.55 nM; in [7] it was 0.309 nM; in [8], 3.47 nM. In experiment [11], the Kb was 58.9 nM.

In the case of `COc1cc2nc(N3CCN(C(=O)c4ccco4)[C@H]4CCCC[C@H]43)nc(N)c2cc1OC` [CYCLAZOSIN], the pKb in experiment [2] turned out to be 8.86. The Ki is 3.24 nM in experiment [4], 0.135 nM in experiment [7] and 12.3 nM in experiment [8]. Moreover, the Kb in experiment [12] was 17 nM.
